Assay results as given in PMC10325900, “A conserved motif in the disordered linker of human MLH1 is vital for DNA mismatch repair and its function is diminished by a cancer family mutation” (Nucleic Acids Research, 2023).
“Also recorded” adds a separate entry of the source. No end group written: not given here.

Target: T1, MLH1-ΔConMot-PMS2 (Homo sapiens, UniProt P40692+P54278, DEL377-396)
T1 construct: The pcDNA3 expression vector containing the entire open reading frame of human MLH1; expressed in transfected cells; host or cells: HEK293T (MLH1-deficient), transiently co-transfected
T1 sequence (P40692 with tags, fused parts or gaps DEL377-396): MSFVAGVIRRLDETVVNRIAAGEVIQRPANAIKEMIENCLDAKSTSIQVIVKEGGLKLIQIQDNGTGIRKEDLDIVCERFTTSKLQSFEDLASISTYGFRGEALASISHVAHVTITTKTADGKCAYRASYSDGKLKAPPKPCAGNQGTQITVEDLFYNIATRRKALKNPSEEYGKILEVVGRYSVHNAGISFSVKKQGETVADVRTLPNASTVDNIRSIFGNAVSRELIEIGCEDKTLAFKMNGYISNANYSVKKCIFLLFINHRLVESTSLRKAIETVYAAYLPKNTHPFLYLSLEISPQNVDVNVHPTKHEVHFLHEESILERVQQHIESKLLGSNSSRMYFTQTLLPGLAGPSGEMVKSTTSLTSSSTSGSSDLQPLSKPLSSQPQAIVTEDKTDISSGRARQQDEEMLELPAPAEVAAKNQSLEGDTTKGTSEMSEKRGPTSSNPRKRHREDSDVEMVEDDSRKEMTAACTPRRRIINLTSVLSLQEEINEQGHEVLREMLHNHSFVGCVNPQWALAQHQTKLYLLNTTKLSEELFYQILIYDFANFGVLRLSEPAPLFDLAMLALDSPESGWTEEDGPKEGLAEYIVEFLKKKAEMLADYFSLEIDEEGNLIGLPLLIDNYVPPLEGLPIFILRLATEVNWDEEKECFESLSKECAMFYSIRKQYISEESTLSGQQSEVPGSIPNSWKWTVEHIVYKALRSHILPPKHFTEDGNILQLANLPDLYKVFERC
T1 sequence (P54278 1-862 partner): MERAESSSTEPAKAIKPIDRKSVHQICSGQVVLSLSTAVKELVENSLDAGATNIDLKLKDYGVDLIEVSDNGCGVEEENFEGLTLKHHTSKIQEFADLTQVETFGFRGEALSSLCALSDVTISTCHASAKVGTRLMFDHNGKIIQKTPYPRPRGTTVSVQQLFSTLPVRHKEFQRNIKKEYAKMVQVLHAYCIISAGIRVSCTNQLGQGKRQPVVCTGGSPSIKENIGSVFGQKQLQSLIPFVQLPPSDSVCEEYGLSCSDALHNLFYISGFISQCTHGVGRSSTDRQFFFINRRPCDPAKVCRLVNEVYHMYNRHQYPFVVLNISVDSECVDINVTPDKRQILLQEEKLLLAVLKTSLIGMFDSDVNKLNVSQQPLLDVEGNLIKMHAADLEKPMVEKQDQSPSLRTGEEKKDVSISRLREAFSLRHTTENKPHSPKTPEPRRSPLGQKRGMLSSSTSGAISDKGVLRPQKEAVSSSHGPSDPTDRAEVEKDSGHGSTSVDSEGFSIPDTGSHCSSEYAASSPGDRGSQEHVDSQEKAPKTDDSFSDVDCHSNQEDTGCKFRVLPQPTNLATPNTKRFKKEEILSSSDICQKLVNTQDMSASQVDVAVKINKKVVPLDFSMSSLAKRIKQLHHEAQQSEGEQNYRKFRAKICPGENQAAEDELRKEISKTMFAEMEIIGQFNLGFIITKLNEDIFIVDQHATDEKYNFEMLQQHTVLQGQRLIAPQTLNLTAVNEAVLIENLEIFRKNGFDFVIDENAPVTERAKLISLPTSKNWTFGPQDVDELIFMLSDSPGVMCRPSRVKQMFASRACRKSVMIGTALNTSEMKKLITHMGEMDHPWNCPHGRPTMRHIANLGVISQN
Test: DNA mismatch repair (MMR) complementation assay with peptide, MLH1-ΔConMot variant
Type: biochemical
Protocol: Mismatch repair activity was assessed as described in detail before ([79],[81]) (Supplementary Figure S3). […] Mismatched DNA plasmid substrate (Supplementary Figure S3) prepared according to previously published procedures ([81–83]) was added, and reactions in a final volume of 25 μl were incubated at 37°C for 15 min. Repair efficiency was scored by purifying the mismatched DNA plasmid from the reaction and assessing the fraction of homoduplex sequence by restriction digestion of the mismatched site using EcoRV. The substrate was additionally linearized with AseI.
For complementation assays with peptide, the indicated peptide(s) were used at stock concentrations of 50 or 500 μM in HEPES–KOH 20 mM pH 7.6 and supplemented to the MMR reactions.
Figure 4. Reaction of DNA mismatch repair to addition of ConMot peptide. (A) Nuclear extract of MLH1-proficient HEK293 cells was used for performing the DNA mismatch repair reaction. Four reactions were undertaken, with two reactions supplemented with either 7.5 μM or 75 μM ConMot-32 peptide. A negative control reaction was performed by omitting the 37°C repair incubation. (B) MMR reactions were performed with nuclear extract of MLH1-deficient HEK293T cells supplemented with extract of cells transfected either with wildtype MLH1-PMS2 (positive control) or with MLH1-ΔConMot-PMS2. To these MMR reactions, different peptides were added at a concentration of 75 μM: A ConMot-32 peptide (A), a Scramble-32 peptide (B) in which the conserved ConMot sequence is scrambled, and a short ConMot-20 peptide (C) that only contains the twenty highly conserved ConMot residues. The peptide sequences are given below the gel image. (C) The concentration-dependence of the MMR-activating effect of the ConMot-32 peptide observed in (B) was measured over a concentration range from 1–75 μM. (D) Theoretical binding curves of a ligand (peptide) to a protein were calculated for dissociation constants (KD) of 1, 5 and 10 μM for a protein concentration as present for MLH1-PMS2 in the MMR assay reactions (see also Supplementary Figure S3). Into this diagram, the average MMR activities (and standard deviations) measured in >3 of the experiment exemplarily shown in C were introduced as bars at ConMot-32 peptide concentrations of 1, 2.5, 7.5, 18 and 75 μM.
Second, we used extract of the repair-deficient cell line HEK293T supplemented with either wildtype MutLα (MLH1-PMS2) or the ΔConMot deletion variant, corresponding to experiment shown in Figure 2B. In this experiment, we again added ConMot peptide.
We investigated the effect of the ConMot peptide more closely by titrating the required peptide concentrations for activation. We determined that the mismatch repair reactions performed in this study contained approximately 280 fmol MLH1 (Supplementary Figure S4A and B), which is in good agreement with previous quantifications of MLH1-PMS2 in cells and extracts ([96]). […] Dissociation constants (KD) for peptides to proteins are typically in the range of 1–10 μM ([97]). We compared the measured concentration-dependent MMR activities with theoretical binding curves of (peptide) ligands to (protein) substrates for KD values of 1, 5 and 10 μM (Supplementary Figure S4C) at the determined MLH1 concentration. […] It is therefore plausible that a binding reaction of the ConMot peptide (to a protein) underlies the restauration of MMR activity. […]
Deletion C on M ot (∆Co nMot) c.1129_1188del CTGCAGCCTCTGAGCAAA […]
Del et i on comp are (∆Compare) c.1221_1280del […] ACTGGACAGGGGTTTGCT
Scramble c.1147_1160delinsGAC ggtacgtTCCCGGGAACAGAAGCT atagtgtcCTGGTGGGCATAGACCT
p.(M383_D387delinsDTMVR) ACTATGGTAC G T TATC
ConMot hy bri d gcataTCTGCAGCCTCTGAGCAA acagg[…]
Supplementary Table 1: Analyzed variant inf ormation.
Variant descriptions confer to HGVS format and refer to the MLH1 reference cDNA (NM_000249.4) […]

[1] = ConMot-32, concentration range 1–75 μM, approximately 280 fmol MLH1 (11.1 nM), 37°C, 15 min, >3 experiments

In the case of “SGSSDKVYAHQMVRTDSREQKLDAFLQPLSKP [ConMot-32]”, the “peptide concentration at which almost complete activation was achieved (MMR)” value [1] is reported as 75 µM, the “peptide concentration at which increase in MMR activity became detectable” value [1] is reported as 1 µM and the EC50 (ConMot-32, concentration range 1–75 μM, approximately 280 fmol MLH1 (11.1 nM), 37°C, 15 min, >3 experiments, read-out: peptide concentration at which 50% activation was achieved (MMR)) is reported as 7.5 µM. The “effect of peptide on MMR (summary in Supplementary Table 2)” value (molar ratio 0-860-2300-8600 to hMLH1-PMS2, Tris-HCl pH 7.5, 5 mM Mg2+, 1.5 mM ATP) was “activating” and the “restoration of DNA mismatch repair activity of the ΔConMot variant” value (peptide 75 μM (Figure 4B), HEK293T nuclear extract 50 μg + 5 μg transfected extract, 25 μl, 37°C, 15 min, EcoRV/AseI digestion, agarose gel, listed as ConMot-peptide) was “could be overcome; also recorded: possible to overcome the MMR-deficiency”.
